Reference: ChEMBL document CHEMBL4507309 (2021)

Tests used:
[1] = molecular target: T1, 5-hydroxytryptamine receptor 1D (Homo sapiens, UniProt P28221); details: Compound concentration 10.0 uM
[2] = molecular target: Beta-2 adrenergic receptor (Homo sapiens) (UniProt P07550); details: Compound concentration 10.0 uM
[3] = molecular target: Muscarinic acetylcholine receptor M5 (Homo sapiens) (UniProt P08912); details: Compound concentration 10.0 uM
Rattus norvegicus = species on record: Rattus norvegicus; details: Compound concentration 10.0 uM
[4] = molecular target: Muscarinic acetylcholine receptor M1 (Homo sapiens) (UniProt P11229); details: Compound concentration 10.0 uM
D(1A) dopamine receptor [5] = molecular target: T2, D(1A) dopamine receptor (Homo sapiens, UniProt P21728); details: Compound concentration 10.0 uM
[6] = molecular target: 5-hydroxytryptamine receptor 4 (Homo sapiens, UniProt Q13639); test: GPCRScan assay: inhibition of 5-HT4; parameters: radioligand conc. used [nm] 0.5 – 2.0, parental cells HEK T
5-hydroxytryptamine receptor 4, sequence (Q13639 whole entry): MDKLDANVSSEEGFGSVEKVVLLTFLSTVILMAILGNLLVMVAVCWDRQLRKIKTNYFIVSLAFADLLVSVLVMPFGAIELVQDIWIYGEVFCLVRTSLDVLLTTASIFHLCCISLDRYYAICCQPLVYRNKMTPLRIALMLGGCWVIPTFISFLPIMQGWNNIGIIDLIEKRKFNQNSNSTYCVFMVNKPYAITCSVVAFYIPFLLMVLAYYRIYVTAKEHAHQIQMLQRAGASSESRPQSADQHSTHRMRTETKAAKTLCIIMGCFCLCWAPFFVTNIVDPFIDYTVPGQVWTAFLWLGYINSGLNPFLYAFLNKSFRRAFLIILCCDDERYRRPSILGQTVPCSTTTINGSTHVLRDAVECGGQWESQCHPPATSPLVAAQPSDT

[7] = molecular target: Beta-3 adrenergic receptor (Homo sapiens) (UniProt P13945); details: Compound concentration 10.0 uM
[8] = molecular target: Alpha-1A adrenergic receptor (Homo sapiens) (UniProt P35348); details: Compound concentration 10.0 uM
[9] = molecular target: Alpha-1D adrenergic receptor (Homo sapiens) (UniProt P25100); details: Compound concentration 10.0 uM
Histamine H1 receptor [10] = molecular target: T3, Histamine H1 receptor (Homo sapiens, UniProt P35367); test: GPCRScan assay: inhibition of H1; parameters: radioligand conc. used [nm] 0.6 – 2.0, parental cells stable HEK
T3 sequence (P35367 whole entry): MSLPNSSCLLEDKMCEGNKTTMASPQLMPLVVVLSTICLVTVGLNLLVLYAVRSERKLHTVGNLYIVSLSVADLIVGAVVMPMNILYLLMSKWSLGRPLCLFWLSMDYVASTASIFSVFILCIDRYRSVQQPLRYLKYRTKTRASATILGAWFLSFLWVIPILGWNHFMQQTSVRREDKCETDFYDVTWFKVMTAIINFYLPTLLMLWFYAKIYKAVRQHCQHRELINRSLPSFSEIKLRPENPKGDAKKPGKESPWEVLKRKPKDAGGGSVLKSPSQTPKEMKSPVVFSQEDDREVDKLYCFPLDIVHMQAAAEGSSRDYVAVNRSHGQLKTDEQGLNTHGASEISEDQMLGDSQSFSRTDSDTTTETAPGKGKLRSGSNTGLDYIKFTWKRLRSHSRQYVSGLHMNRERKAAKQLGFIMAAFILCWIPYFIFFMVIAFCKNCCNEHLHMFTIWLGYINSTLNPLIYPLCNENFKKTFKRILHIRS

[11] = molecular target: Glutamate [NMDA] receptor (Homo sapiens) (UniProt Q05586+Q12879+Q13224+O15399+O60391+Q14957+Q8TCU5); test: (§1) GPCRScan assay: inhibition of NMDA; type: protein-complex assay; parameters: radioligand conc. used [nm] 1.4 – 13.0; details: Compound concentration 10.0 uM
[12] = molecular target: Glutamate [NMDA] receptor; test: as §1; type: protein-complex assay, Homo sapiens; parameters: radioligand conc. used [nm] 1.4 – 13.0
[13] = molecular target: Muscarinic acetylcholine receptor M3 (Homo sapiens) (UniProt P20309); details: Compound concentration 10.0 uM
[14] = molecular target: Alpha-2B adrenergic receptor (Homo sapiens, UniProt P18089); test: GPCRScan assay: inhibition of Alpha2B; parameters: radioligand conc. used [nm] 1.5 – 2.0, parental cells HEKT
[15] = molecular target: 5-hydroxytryptamine receptor 3A (Homo sapiens) (UniProt P46098); details: Compound concentration 10.0 uM
[16] = molecular target: Histamine H4 receptor (Homo sapiens) (UniProt Q9H3N8); details: Compound concentration 10.0 uM
[17] = molecular target: T4, 5-hydroxytryptamine receptor 7 (Homo sapiens, UniProt P34969); details: Compound concentration 10.0 uM
[18] = molecular target: 5-hydroxytryptamine receptor 2C (Homo sapiens) (UniProt P28335); details: Compound concentration 10.0 uM
[19] = molecular target: Alpha-2C adrenergic receptor (Homo sapiens) (UniProt P18825); details: Compound concentration 10.0 uM
[20] = molecular target: Beta-1 adrenergic receptor (Homo sapiens) (UniProt P08588); details: Compound concentration 10.0 uM
[21] = molecular target: T5, Sigma intracellular receptor 2 (Homo sapiens, UniProt Q5BJF2); test: GPCRScan assay: inhibition of Sigma 2; parameters: radioligand conc. used [nm] 5.0, parental cells HEKT
T5 sequence (Q5BJF2 whole entry): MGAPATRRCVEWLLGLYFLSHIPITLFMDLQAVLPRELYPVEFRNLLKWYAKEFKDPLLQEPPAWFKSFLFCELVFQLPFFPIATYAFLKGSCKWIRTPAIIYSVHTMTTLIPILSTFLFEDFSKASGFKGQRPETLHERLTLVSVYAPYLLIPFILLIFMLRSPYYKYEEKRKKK

[22] = molecular target: T6, 5-hydroxytryptamine receptor 2B (Homo sapiens, UniProt P41595); details: Compound concentration 10.0 uM
T6 sequence (P41595 whole entry): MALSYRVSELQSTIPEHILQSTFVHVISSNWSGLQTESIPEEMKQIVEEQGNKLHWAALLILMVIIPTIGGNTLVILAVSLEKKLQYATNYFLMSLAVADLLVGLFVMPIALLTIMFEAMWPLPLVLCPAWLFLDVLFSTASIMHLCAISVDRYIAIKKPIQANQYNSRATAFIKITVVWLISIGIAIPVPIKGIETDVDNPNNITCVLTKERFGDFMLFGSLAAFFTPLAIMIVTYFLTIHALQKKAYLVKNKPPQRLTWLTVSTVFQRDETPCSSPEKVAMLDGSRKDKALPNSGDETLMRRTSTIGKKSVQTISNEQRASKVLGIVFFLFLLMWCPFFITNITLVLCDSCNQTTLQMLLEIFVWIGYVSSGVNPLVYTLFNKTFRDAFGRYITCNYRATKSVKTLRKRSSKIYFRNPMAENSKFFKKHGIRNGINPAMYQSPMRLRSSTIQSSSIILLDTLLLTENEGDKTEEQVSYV

[23] = molecular target: Sodium-dependent noradrenaline transporter (Homo sapiens) (UniProt P23975); details: Compound concentration 10.0 uM
[24] = molecular target: Mu-type opioid receptor (Homo sapiens) (UniProt P35372); details: Compound concentration 10.0 uM
[25] = molecular target: T7, Sodium-dependent dopamine transporter (Homo sapiens, UniProt Q01959); details: Compound concentration 10.0 uM
T7 sequence (Q01959 whole entry): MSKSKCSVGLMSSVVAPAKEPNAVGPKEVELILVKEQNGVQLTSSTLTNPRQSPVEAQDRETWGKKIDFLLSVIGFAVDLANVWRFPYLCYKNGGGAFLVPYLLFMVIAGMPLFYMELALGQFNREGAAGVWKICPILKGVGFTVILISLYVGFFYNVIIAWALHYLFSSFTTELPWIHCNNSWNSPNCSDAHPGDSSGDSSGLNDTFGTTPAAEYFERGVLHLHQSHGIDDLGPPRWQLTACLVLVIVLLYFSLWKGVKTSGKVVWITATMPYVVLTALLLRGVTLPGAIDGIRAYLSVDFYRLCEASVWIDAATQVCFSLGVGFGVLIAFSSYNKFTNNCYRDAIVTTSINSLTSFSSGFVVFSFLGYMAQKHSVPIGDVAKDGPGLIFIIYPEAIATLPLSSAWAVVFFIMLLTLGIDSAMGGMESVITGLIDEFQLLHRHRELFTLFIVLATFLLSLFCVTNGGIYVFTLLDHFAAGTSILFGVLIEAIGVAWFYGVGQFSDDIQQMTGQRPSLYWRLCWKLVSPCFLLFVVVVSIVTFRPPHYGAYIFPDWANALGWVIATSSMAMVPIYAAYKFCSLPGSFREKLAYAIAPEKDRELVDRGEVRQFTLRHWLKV

[26] = molecular target: T8, 5-hydroxytryptamine receptor 2A (Homo sapiens, UniProt P28223); details: Compound concentration 10.0 uM
Histamine H2 receptor [27] = molecular target: T9, Histamine H2 receptor (Homo sapiens, UniProt P25021); details: Compound concentration 10.0 uM
T9 sequence (P25021 whole entry): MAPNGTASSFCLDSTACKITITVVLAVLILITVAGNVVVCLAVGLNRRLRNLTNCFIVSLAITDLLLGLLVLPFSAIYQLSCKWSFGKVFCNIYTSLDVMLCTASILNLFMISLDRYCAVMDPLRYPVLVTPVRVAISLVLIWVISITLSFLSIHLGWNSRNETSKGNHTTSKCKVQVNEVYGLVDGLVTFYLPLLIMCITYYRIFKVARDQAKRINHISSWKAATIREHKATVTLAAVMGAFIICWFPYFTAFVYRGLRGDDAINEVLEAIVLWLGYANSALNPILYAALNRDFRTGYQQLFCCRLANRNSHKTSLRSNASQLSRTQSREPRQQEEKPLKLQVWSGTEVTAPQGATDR

[28] = molecular target: 5-hydroxytryptamine receptor 1A (Homo sapiens, UniProt P08908); test: GPCRScan assay: inhibition of 5-HT1A; parameters: radioligand conc. used [nm] 0.5 – 1.0, parental cells stable CHO
5-hydroxytryptamine receptor 1A, sequence (P08908 whole entry): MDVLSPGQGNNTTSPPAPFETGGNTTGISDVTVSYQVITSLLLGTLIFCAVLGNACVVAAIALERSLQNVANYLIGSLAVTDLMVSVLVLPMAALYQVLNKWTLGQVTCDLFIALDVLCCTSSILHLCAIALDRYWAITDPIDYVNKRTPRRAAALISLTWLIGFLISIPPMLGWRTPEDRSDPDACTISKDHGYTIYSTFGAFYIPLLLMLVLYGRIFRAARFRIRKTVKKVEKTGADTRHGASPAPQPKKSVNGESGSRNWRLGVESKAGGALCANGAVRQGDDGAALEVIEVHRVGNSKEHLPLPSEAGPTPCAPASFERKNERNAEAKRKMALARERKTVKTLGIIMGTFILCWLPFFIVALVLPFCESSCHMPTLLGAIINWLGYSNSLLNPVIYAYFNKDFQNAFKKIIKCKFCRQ

[29] = molecular target: Alpha-2B adrenergic receptor (Homo sapiens) (UniProt P18089); details: Compound concentration 10.0 uM
[30] = molecular target: Muscarinic acetylcholine receptor M2 (Homo sapiens, UniProt P08172); test: GPCRScan assay: inhibition of M2; parameters: radioligand conc. used [nm] 0.2 – 1.0, parental cells stable CHO
Histamine H1 receptor [31] = molecular target: T3, Histamine H1 receptor; details: Compound concentration 10.0 uM
[32] = molecular target: Alpha-2A adrenergic receptor (Homo sapiens) (UniProt P08913); details: Compound concentration 10.0 uM
[33] = molecular target: T10, 5-hydroxytryptamine receptor 1B (Homo sapiens, UniProt P28222); test: GPCRScan assay: inhibition of 5-HT1B; parameters: radioligand conc. used [nm] 0.6 – 1.5, parental cells stable HEK
T10 sequence (P28222 whole entry): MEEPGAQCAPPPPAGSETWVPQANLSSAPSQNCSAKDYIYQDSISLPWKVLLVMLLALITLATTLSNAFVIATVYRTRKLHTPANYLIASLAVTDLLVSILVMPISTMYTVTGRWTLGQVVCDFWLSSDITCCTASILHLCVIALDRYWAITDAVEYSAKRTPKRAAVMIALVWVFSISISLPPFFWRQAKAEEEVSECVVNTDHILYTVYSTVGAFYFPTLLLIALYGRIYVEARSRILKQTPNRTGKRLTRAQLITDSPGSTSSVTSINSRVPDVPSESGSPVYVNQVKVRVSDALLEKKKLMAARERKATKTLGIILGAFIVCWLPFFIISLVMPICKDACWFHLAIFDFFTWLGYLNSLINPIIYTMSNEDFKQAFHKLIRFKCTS

[34] = molecular target: D(3) dopamine receptor (Homo sapiens) (UniProt P35462); details: Compound concentration 10.0 uM
[35] = molecular target: Muscarinic acetylcholine receptor M2 (Homo sapiens) (UniProt P08172); details: Compound concentration 10.0 uM
[36] = molecular target: T11, 5-hydroxytryptamine receptor 5A (Homo sapiens, UniProt P47898); details: Compound concentration 10.0 uM
T11 sequence (P47898 whole entry): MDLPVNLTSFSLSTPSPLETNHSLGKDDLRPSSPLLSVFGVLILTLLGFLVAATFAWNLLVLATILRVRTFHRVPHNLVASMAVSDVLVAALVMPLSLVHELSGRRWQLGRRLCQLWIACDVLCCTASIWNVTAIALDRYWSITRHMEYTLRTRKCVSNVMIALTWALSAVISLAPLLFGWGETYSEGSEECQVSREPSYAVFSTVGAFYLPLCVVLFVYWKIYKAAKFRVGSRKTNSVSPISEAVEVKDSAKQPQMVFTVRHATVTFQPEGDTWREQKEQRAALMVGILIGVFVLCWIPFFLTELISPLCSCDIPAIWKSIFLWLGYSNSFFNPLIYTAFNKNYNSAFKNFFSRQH

[37] = molecular target: 5-hydroxytryptamine receptor 2C (Homo sapiens, UniProt P28335); test: GPCRScan assay: inhibition of 5-HT2C; parameters: radioligand conc. used [nm] 1.0 – 2.5, parental cells HEK T
[38] = molecular target: T12, Kappa-type opioid receptor (Homo sapiens, UniProt P41145); details: Compound concentration 10.0 uM
T12 sequence (P41145 whole entry): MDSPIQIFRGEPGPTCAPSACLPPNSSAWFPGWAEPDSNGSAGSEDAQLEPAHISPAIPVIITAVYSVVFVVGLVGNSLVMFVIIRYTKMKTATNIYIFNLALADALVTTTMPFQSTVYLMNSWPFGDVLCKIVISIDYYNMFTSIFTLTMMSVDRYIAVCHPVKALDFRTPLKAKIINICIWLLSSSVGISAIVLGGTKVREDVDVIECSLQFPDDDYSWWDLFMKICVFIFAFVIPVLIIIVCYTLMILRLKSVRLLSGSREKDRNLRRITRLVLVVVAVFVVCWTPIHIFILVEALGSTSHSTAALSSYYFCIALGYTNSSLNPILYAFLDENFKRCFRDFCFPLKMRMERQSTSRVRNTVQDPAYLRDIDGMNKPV

[39] = molecular target: T6, 5-hydroxytryptamine receptor 2B; test: GPCRScan assay: inhibition of 5-HT2B; parameters: radioligand conc. used [nm] 1.0 – 2.0, parental cells stable HEK
[40] = molecular target: T5, Sigma intracellular receptor 2; details: Compound concentration 10.0 uM
Histamine H2 receptor [41] = molecular target: T9, Histamine H2 receptor; test: GPCRScan assay: inhibition of H2; parameters: radioligand conc. used [nm] 0.02 – 0.05, parental cells Stable HEK
D(1A) dopamine receptor [42] = molecular target: T2, D(1A) dopamine receptor; test: GPCRScan assay: inhibition of D1; parameters: radioligand conc. used [nm] 0.6 – 1.3, parental cells HEKT
[43] = molecular target: Sigma non-opioid intracellular receptor 1 (Homo sapiens) (UniProt Q99720); details: Compound concentration 10.0 uM
[44] = molecular target: T13, GABA-A receptor; anion channel (Rattus norvegicus) (UniProt O09028+P15431+P18506+P18508+P19969+P20236+P23574+P23576+P28471+P28473+P30191+P62813+P63079+P63138+Q91ZM7+Q9ES14); details: Compound concentration 10.0 uM
[45] = molecular target: Alpha-1B adrenergic receptor (Homo sapiens) (UniProt P35368); details: Compound concentration 10.0 uM
[46] = molecular target: T7, Sodium-dependent dopamine transporter; test: GPCRScan assay: inhibition of DAT; parameters: radioligand conc. used [nm] 3.6 – 16.0, parental cells stable HEK
[47] = molecular target: Sodium-dependent serotonin transporter (Homo sapiens) (UniProt P31645); details: Compound concentration 10.0 uM
[48] = molecular target: D(1B) dopamine receptor (Homo sapiens) (UniProt P21918); details: Compound concentration 10.0 uM
[49] = molecular target: 5-hydroxytryptamine receptor 3A (Homo sapiens, UniProt P46098); test: GPCRScan assay: inhibition of 5-HT3; parameters: radioligand conc. used [nm] 1.0 – 2.0, parental cells HEKT
5-hydroxytryptamine receptor 3A, sequence (P46098 whole entry): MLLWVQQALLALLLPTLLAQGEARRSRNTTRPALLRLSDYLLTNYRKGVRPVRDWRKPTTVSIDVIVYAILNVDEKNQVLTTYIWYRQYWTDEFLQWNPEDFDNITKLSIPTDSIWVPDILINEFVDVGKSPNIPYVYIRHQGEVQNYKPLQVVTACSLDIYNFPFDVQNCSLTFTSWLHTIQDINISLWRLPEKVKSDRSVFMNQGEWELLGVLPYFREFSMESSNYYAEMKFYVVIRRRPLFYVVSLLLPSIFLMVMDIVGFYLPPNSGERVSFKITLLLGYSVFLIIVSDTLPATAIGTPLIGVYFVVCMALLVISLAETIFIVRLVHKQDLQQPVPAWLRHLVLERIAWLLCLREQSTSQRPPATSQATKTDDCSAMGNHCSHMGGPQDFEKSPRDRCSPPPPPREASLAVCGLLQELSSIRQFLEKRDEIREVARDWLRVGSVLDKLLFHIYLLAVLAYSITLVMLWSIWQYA

[50] = molecular target: Muscarinic acetylcholine receptor M1 (Homo sapiens, UniProt P11229); test: GPCRScan assay: inhibition of M1; parameters: radioligand conc. used [nm] 0.3 – 1.2, parental cells stable CHO
[51] = molecular target: T11, 5-hydroxytryptamine receptor 5A; test: GPCRScan assay: inhibition of 5-HT5A; parameters: radioligand conc. used [nm] 2.0 - 3.3, parental cells Flp-In CHO
[52] = molecular target: T14, 5-hydroxytryptamine receptor 6 (Homo sapiens, UniProt P50406); details: Compound concentration 10.0 uM
[53] = molecular target: 5-hydroxytryptamine receptor 1A (Homo sapiens) (UniProt P08908); details: Compound concentration 10.0 uM
[54] = molecular target: T4, 5-hydroxytryptamine receptor 7; test: GPCRScan assay: inhibition of 5-HT7A; parameters: radioligand conc. used [nm] 5.0 – 6.0, parental cells Stable HEK
[55] = molecular target: T14, 5-hydroxytryptamine receptor 6; test: GPCRScan assay: inhibition of 5-HT6; parameters: radioligand conc. used [nm] 2.0 – 4.0, parental cells stable HEK
[56] = molecular target: T8, 5-hydroxytryptamine receptor 2A; test: GPCRScan assay: inhibition of 5-HT2A; parameters: radioligand conc. used [nm] 1.2 – 2.4, parental cells HEKT
[57] = molecular target: Delta-type opioid receptor (Homo sapiens) (UniProt P41143); details: Compound concentration 10.0 uM
[58] = molecular target: D(2) dopamine receptor (Homo sapiens) (UniProt P14416); details: Compound concentration 10.0 uM
[59] = molecular target: T12, Kappa-type opioid receptor; test: GPCRScan assay: inhibition of KOR; parameters: radioligand conc. used [nm] 0.6 – 1.2, parental cells stable HEK
[60] = molecular target: T10, 5-hydroxytryptamine receptor 1B; details: Compound concentration 10.0 uM
[61] = molecular target: T1, 5-hydroxytryptamine receptor 1D; test: GPCRScan assay: inhibition of 5-HT1D; parameters: radioligand conc. used [nm] 1.0 – 2.0, parental cells HEKT
[62] = molecular target: T13, GABA-A receptor; anion channel (Rattus norvegicus); details: Compound concentration 10.0 uM; remark: listed apart in the source

T1 sequence (P28221 whole entry): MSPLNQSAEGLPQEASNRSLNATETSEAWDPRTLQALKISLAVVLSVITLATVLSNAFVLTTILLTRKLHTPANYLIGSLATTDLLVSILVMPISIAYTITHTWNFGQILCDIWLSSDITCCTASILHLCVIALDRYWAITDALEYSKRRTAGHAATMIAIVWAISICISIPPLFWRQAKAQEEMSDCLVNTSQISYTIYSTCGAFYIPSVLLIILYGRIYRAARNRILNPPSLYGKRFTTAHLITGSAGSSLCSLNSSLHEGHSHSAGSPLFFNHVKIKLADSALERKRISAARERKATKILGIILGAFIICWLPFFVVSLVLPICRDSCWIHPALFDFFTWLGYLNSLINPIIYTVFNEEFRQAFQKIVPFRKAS

`Cc1ccc2nc(CNCCCOc3ccccc3)cc(O)c2c1` [UCSF924] gave an inhibition [1] of 58.6%, an inhibition [2] of 33.3% and an inhibition [3] of 15.5%. The inhibition (Rattus norvegicus) was 8.58%, the inhibition [4] was 12.4% and the inhibition (D(1A) dopamine receptor [5]) was 3.15%. It also gave a Ki [6] of 6.69 µM, an inhibition ([6]; Compound concentration 10.0 uM) of 0% and an inhibition [7] of 11.6%. The inhibition [8] was 23%, the inhibition [9] was 25.4% and the Ki (Histamine H1 receptor [10]; read-out: Ki) was 4.55 µM. It also gave a Ki (Histamine H1 receptor [10]; read-out: pKi (converted)) of 4.68 µM, an inhibition [11] of 0% and a Ki [12] of 1 µM. The inhibition [13] was -3.52%, the Ki ([14]; read-out: Ki) was 3.04 µM and the Ki ([14]; read-out: pKi (converted)) was 2.57 µM. The inhibition [15] was 55%, the inhibition [16] was 0.51% and the inhibition [17] was 60%. It also gave an inhibition [18] of 31.7%, an inhibition [19] of 44.7% and an inhibition [20] of 18.8%. For the same compound, the Ki [21] was 1.89 µM, the inhibition [22] was 80% and the inhibition [23] was 26.2%. The inhibition [24] was 39.7%, the inhibition [25] was 52.1% and the inhibition [26] was 19.9%. The inhibition (Histamine H2 receptor [27]) was 24.8%, the Ki ([28]; read-out: Ki) was 0.223 µM and the Ki ([28]; read-out: pKi (converted)) was 0.214 µM. It also gave an inhibition [29] of 21.8%, a Ki [30] of 4.43 µM and an inhibition (Histamine H1 receptor [31]) of 25.5%. For the same compound, the inhibition [32] was 17.6%, the Ki ([33]; read-out: Ki) was 3.41 µM and the Ki ([33]; read-out: pKi (converted)) was 3.31 µM. The inhibition [34] was 5.75%, the inhibition [35] was 22% and the inhibition [36] was 28.8%. It also gave a Ki [37] of 5.55 µM, an inhibition [38] of 48.4% and a Ki ([39]; read-out: Ki) of 0.237 µM. The Ki ([39]; read-out: pKi (converted)) was 0.224 µM, the inhibition [40] was 50.3% and the Ki (Histamine H2 receptor [41]; read-out: Ki) was 1.91 µM. For the same compound, the Ki (Histamine H2 receptor [41]; read-out: pKi (converted)) was 1.78 µM, the Ki (D(1A) dopamine receptor [42]) was 3.42 µM and the inhibition [43] was 3.82%. The inhibition [44] was 4.11%, the inhibition [45] was 16.5% and the Ki ([46]; read-out: Ki) was 2.12 µM. For the same compound, the Ki ([46]; read-out: pKi (converted)) was 1.62 µM, the inhibition [47] was 35.4% and the inhibition [48] was 16.7%. For the same compound, the Ki ([49]; read-out: Ki) was 3.99 µM, the Ki ([49]; read-out: pKi (converted)) was 3.72 µM and the Ki [50] was 4.05 µM. The Ki ([51]; read-out: Ki) was 5.82 µM, the Ki ([51]; read-out: pKi (converted)) was 5.62 µM and the inhibition [52] was 23%. For the same compound, the inhibition [53] was 72.1%, the Ki [54] was 2.08 µM and the Ki [55] was 6.68 µM. It also gave a Ki [56] of 3.28 µM, an inhibition [57] of 22.5% and an inhibition [58] of 8.56%. For the same compound, the Ki ([59]; read-out: Ki) was 2.31 µM, the Ki ([59]; read-out: pKi (converted)) was 2.19 µM and the inhibition [60] was 17.7%. The Ki ([61]; read-out: Ki) was 3.25 µM, the Ki ([61]; read-out: pKi (converted)) was 3.14 µM and the inhibition [62] was 1.68%.
